According to patent US4478849A, “Secondary amines, their preparation and use in pharmaceutical compositions” (Beecham Group Limited, priority 1978, dated 1984):

Experiments:
genetically obese mice = test: carcass lipid of genetically obese mice after daily oral dosing for 28 days (anti-obesity); assay type: in vivo, mouse (genetically obese); conditions: for anti-obesity activity (in words): general statement, no dose given
Method: (i) The compounds and a comparison compound (salbutamol) were dosed daily in water or carboxymethylcellulose suspension to genetically obese mice by oral gavage for 28 days. At the end of that time the carcass composition was determined.

blood glucose = test: hypoglycaemic activity: reduction in area under blood glucose curve after glucose load in fasted mice; assay type: in vivo, female CFLP mice; conditions: for inhibition in vivo at 5 mg/kg / inhibition in vivo at 20 mg/kg: Mus musculus, po, 2 h, 30 min before glucose load 1 g/kg sc, 2 hour period, versus control mice; for inhibition in vivo at 5 mg/kg: 5 mg/kg po; for inhibition in vivo at 20 mg/kg: 20 mg/kg po; for anti-hyperglycaemic activity (in words): general statement, no dose given
Method: Female CFLP mice, weighing approximately 25 g, were fasted for 24 hours prior to the study. The compounds under study were dosed orally (20 mg and 5 mg/kg) to each of 8 mice. 30 minutes later a blood sample ([…]) was obtained from the tail for the analysis of blood glucose. Immediately after taking this blood sample, each mouse was given a glucose load (1 g/kg body weight sub-cutaneously). Blood samples were then obtained from each mouse at 30 minute intervals for 120 minutes.
Compounds that produced a significant (P<0.05) reduction of blood glucose, compared with control mice given water, at any time interval were considered active. The area under the blood glucose curve over the 2 hour period after giving the glucose load was calculated for each compound and compared with the value for control animals. Thus a compound would give a 100% reduction in the area under the blood glucose curve if the blood glucose was maintained at the same level as in untreated fasted animals. Reduction in the glucose curve of more than 100% indicate that a compound, in spite of being given a glucose load, maintained blood glucose levels below that found in control fasted mice.

| SMILES | inhibition in vivo at 5 mg/kg (blood glucose) [%] | anti-hyperglycaemic activity (in words) (blood glucose) | other results |
| --- | --- | --- | --- |
| COC(=O)c1ccc(OCC(C)NCC(O)c2ccc(O)c(CO)c2)cc1 (stereo not shown) [Example 8, N-[2-(4-Carbomethoxyphenoxy)-1-methylethyl]-2-hydroxy-2-(4-hydroxy-3-hydroxymethylphenyl)ethanamine] |  |  | g - lipid per mouse, Treated (genetically obese mice; 21 mg/kg po, daily for 28 days, control 21.9 ± 0.5): 19.6 ± 0.4 g |
| COC(=O)c1ccc(CC(C)NCC(O)c2ccc(O)c(CO)c2)c(F)c1 (stereo not shown) [Example 9, N-[2-(4-Carbomethoxy-2-fluorophenyl)-1-methylethyl]-2-hydroxy-2-(4-hydroxy-3-hydroxymethylphenyl) ethanamine] | 47 |  |  |
| COC(=O)c1ccc(CC(C)NCC(O)c2ccc(O)c(CO)c2)cc1OC (stereo not shown) [Example 10, N-[2-(4-Carbomethoxy-3-methoxyphenyl)-1-methylethyl]-2-hydroxy-2-(4-hydroxy-3-hydroxymethylphenyl)ethanamine] |  |  | anti-obesity activity (in words) (genetically obese mice): particularly worthy of mention in view of their anti-obesity activity |
| CC(Cc1ccc(C(=O)OC(C)C)cc1)NCC(O)c1ccc(O)c(CO)c1 (stereo not shown) [Example 13, N-[2-(4-Carboisopropoxyphenyl)-1-methylethyl]-2-hydroxy-2-(4-hydroxy-3-hydroxymethylphenyl)ethanamine] |  |  | anti-obesity activity (in words) (genetically obese mice): particularly worthy of mention in view of their anti-obesity activity |
| COC(=O)c1ccc(C(C)NCC(O)c2ccc(O)c(CO)c2)cc1 (stereo not shown) [Example 18] |  |  | inhibition in vivo at 20 mg/kg (blood glucose): 25% |
| COC(=O)c1ccc(CC(C)NCC(O)c2ccc(O)c(O)c2)cc1 (stereo not shown) [Example 19, N-(2-[4-Carbomethoxyphenyl]-1-methylethyl)-2-(3,4-dihydroxyphenyl)-2-hydroxyethanamine] |  | particularly worthy of mention in view of their anti-hyperglycaemic activity |  |
| COC(=O)c1ccc(CCNCC(O)c2ccccc2)cc1 (stereo not shown) [Example 25, N-(2-[4-Carbomethoxyphenyl]ethyl)-2-hydroxy-2-phenylethanamine] | 179 | particularly worthy of mention in view of their anti-hyperglycaemic activity |  |
| COC(=O)c1ccc(CCNCC(O)c2ccccc2Cl)cc1 (stereo not shown) [Example 27, N-(2-[4-Carbomethoxyphenyl]ethyl)-2-(2-chlorophyenyl)-2-hydroxyethanamine] | 38 |  |  |
| COC(=O)c1ccc(CC(C)(C)NCC(O)c2ccc(O)c(CO)c2)cc1 (stereo not shown) [Example 31, N-(2-[4-Carbomethoxyphenyl]-1,1-dimethylethyl)-2-hydroxy-2-(4-hydroxy-3-hydroxymethylphenyl) ethanamine] | 139 | particularly worthy of mention in view of their anti-hyperglycaemic activity |  |
| COC(=O)c1ccc(CC(C)NCC(O)c2ccc(O)cc2Cl)cc1 (stereo not shown) [Example 33, N-(2-[4-Carbomethoxyphenyl]-1-methylethyl)-2-(2-chloro-4-hydroxyphenyl)-2-hydroxyethanamine] | 88 | particularly worthy of mention in view of their anti-hyperglycaemic activity |  |
| COC(=O)c1ccc(CC(C)NCC(O)c2ccc(O)c(N)c2)cc1 (stereo not shown) [Example 34] |  |  | inhibition in vivo at 20 mg/kg (blood glucose): 61% |
| COC(=O)c1ccc(C[C@H](C)NCC(O)c2ccc(O)c(CO)c2)cc1 (stereo partly drawn) [Example 36, N-(1-(S)-2-[4-Carbomethoxyphenyl]-1-methylethyl)-2-hydroxy-2-(4-hydroxy-3-hydroxymethylphenyl)ethanamine] | 79 | particularly worthy of mention in view of their anti-hyperglycaemic activity |  |
| COC(=O)c1ccc(CC(C)NCC(O)c2ccc(O)c(NC(C)=O)c2)cc1 (stereo not shown) [Example 38, N-(2-[4-Carbomethoxyphenyl]-1-methylethyl)-2-(3-acetamido-4-hydroxyphenyl)-2-hydroxyethanamine] | 59 |  |  |
| COC(=O)c1ccc(CC(C)NCC(O)c2ccc(O)c(CS(C)(=O)=O)c2)cc1 (stereo not shown) [Example 39, N-(2-[4-Carbomethoxyphenyl]-1-methylethyl)-2-(4-hydroxy-3-methylsulphonylmethylphenyl)-2-hydroxyethanamine] | 83 | particularly worthy of mention in view of their anti-hyperglycaemic activity |  |
